In article PMC5118987 (Antimicrobial Agents and Chemotherapy, 2016):
Like-named read-outs stand apart in the source and are kept apart here.

What was measured:
Influenza B/LEE/40 = assay: microbe, parasite or virus in culture; type: cell-based; details: NHBE
HIV-1 clinical isolates = assay: Antiviral assay against HIV-1 clinical isolates in fresh human PBMCs (RT endpoint)
Influenza A/PC/1/73 = assay: microbe, parasite or virus in culture; type: cell-based; details: NHBE
HIV-1 BaL [1] = details: primary CD4+ T-cells, 35 days, drug at tissue culture equivalent clinical Cmin (FTC 160 × EC50)
HCV 1b Replicon = assay: Anti-HCV activity, HCV 1b replicon; details: Hepatitis C virus, Huh-7
HIV-1 IIIb [2] = assay: Antiviral assay in MT-2 cells; type: cell-based
Procedure: For the antiviral assay utilizing MT-2 and MT-4 cells, 50 μl of a 2× test concentration of 5-fold serially diluted compound in culture medium with 10% FBS was added to each well of a 96-well plate (9 concentrations) in triplicate. MT-2 and MT-4 cells were infected with HIV-1 IIIb at a multiplicity of infection (MOI) of 0.01 for 3 h. Fifty microliters of infected cell suspension in culture medium with 10% FBS (∼1.5 × 10^4 cells) then was added to each well containing 50 μl of diluted compound. The plates were then incubated at 37°C for 5 days. After 5 days of incubation, 100 μl of CellTiter-Glo reagent (Promega Biosciences, Inc., Madison, WI) was added to each well containing MT-2 or MT-4 cells. Cell lysis was carried out by incubation at room temperature for 10 min and chemiluminescence was read. For compound cytotoxicity assessment, the protocol was identical except that uninfected cells were used and compounds were serially diluted 3-fold.

HIV-1 BaL [3] = assay: Antiviral assay in monocyte-derived macrophages (p24 ELISA); details: Human immunodeficiency virus 1, BAL, Macrophage
Source text: Freshly isolated human peripheral blood mononuclear cells (PBMCs) were obtained from healthy volunteers (supplied by AllCells, Inc., Alameda, CA). Blood donors were negative for HIV-1, hepatitis B, and hepatitis C viral infections. CD4^+ T lymphocytes were isolated by negative selection using a magnetically labeled antibody cocktail ([sequence] Technologies Inc., Vancouver, Canada) and cultured in RPMI cell culture media (Life Technologies, Grand Island, NY) supplemented with 10% FBS. CD4^+ T cells were activated for 48 h at 37°C by addition of 1 μg/ml phytohemagglutinin (PHA; Sigma, St. Louis, MO) and 5 ng/ml interleukin-2 (IL-2; Roche Diagnostics, Indianapolis, IN).
A 3-fold serial dilution of test compounds in RPMI medium was added to triplicate wells and incubated at 37°C for 5 days. Human monocytes were seeded on 96-well plates at a density of 3 × 10^5 cells per well, differentiated into adherent macrophages, and then infected with HIV-1 BaL virus in 50 μl RPMI for 3 h at 37°C. […] The supernatants derived from the CD4^+ T-cell and macrophage cultures were harvested 6 and 12 days postinfection, respectively, and the amount of HIV present was quantified by p24 enzyme-linked immunosorbent assay (ELISA) (PerkinElmer, Waltham, MA).

[4] = test system: NRTI-, NNRTI- and PI-Resistant HIV-1 Mutants; assay: Antiviral activity against NRTI-, NNRTI- and PI-resistant HIV-1 mutants; type: cell-based; details: Human immunodeficiency virus 1; WT, Table S7
HIV-1 IIIb [5] = assay: microbe, parasite or virus in culture; details: Human immunodeficiency virus 1, IIIB, MT4
Procedure: Each compound series was prepared several times independently in quadruplicate to capture the variations in Hill slope associated with preparation of compound serial dilutions. The assay was performed in a 384-well format. MT-4 cells were infected in bulk at the same MOI as that described above, and the plates were developed with CellTiter-Glo reagent 5 days postinfection.

HIV-2 CDC 310319 = assay: Antiviral assay against HIV-2 isolate in fresh human PBMCs (RT endpoint); details: Human immunodeficiency virus 2, PBMC
[6] = test system: inhibitor-selected HIV-1 IIIb passages; assay: Phenotypic profile of selected HIV-1 passages; type: cell-based; details: Human immunodeficiency virus 1, IIIB
[7] = test system: INSTI-resistant HIV-1 mutants (HXB2); assay: microbe, parasite or virus in culture; type: cell-based

## C[C@@H]1CCO[C@H]2Cn3cc(C(=O)NCc4ccc(F)cc4F)c(=O)c(O)c3C(=O)N12 [DTG, Dolutegravir]
Influenza B/LEE/40
  EC50: 15.1 µM
HIV-1 clinical isolates; Human immunodeficiency virus 1, BAL, PBMC, HIV-1 subtype B isolate BaL, human PBMCs
  EC50: 0.32 ± 0.11 nM
HIV-1 clinical isolates; Human immunodeficiency virus 1, PBMC, HIV-1 subtype A isolate 92RW016, human PBMCs
  EC50: 0.34 ± 0.09 nM
HIV-1 clinical isolates; Human immunodeficiency virus 1, PBMC, HIV-1 subtype A isolate 92UG037, human PBMCs
  EC50: 0.66 ± 0.05 nM
HIV-1 clinical isolates; Human immunodeficiency virus 1, PBMC, HIV-1 subtype B isolate 89BZ_167, human PBMCs
  EC50: 1.4 ± 0.4 nM
HIV-1 clinical isolates; Human immunodeficiency virus 1, PBMC, HIV-1 subtype B isolate 91US001, human PBMCs
  EC50: 0.8 ± 0.48 nM
HIV-1 clinical isolates; Human immunodeficiency virus 1, PBMC, HIV-1 subtype B isolate 91US004, human PBMCs
  EC50: 1 ± 0.4 nM
HIV-1 clinical isolates; Human immunodeficiency virus 1, PBMC, HIV-1 subtype C isolate 93IN905, human PBMCs
  EC50: 0.17 ± 0.03 nM
HIV-1 clinical isolates; Human immunodeficiency virus 1, PBMC, HIV-1 subtype C isolate 98US_MSC5016, human PBMCs
  EC50: 0.75 ± 0.09 nM
HIV-1 clinical isolates; Human immunodeficiency virus 1, PBMC, HIV-1 subtype D isolate 98UG_57128, human PBMCs
  EC50: 0.32 ± 0.48 nM
HIV-1 clinical isolates; Human immunodeficiency virus 1, PBMC, HIV-1 subtype E isolate 96TH_M02138, human PBMCs
  EC50: 0.11 ± 0.01 nM
HIV-1 clinical isolates; Human immunodeficiency virus 1, PBMC, HIV-1 subtype E isolate 96TH_NI1046, human PBMCs
  EC50: 0.25 ± 0.08 nM
HIV-1 clinical isolates; Human immunodeficiency virus 1, PBMC, HIV-1 subtype F isolate 93BR020, human PBMCs
  EC50: 0.4 ± 0.19 nM
Influenza A/PC/1/73
  EC50: 12.8 µM
HIV-1 BaL [1]
  Frequency of Viral Breakthrough with RAMs: 0%
  p24+ Wells: 0/24
HCV 1b Replicon
  EC50: > 44 µM
HIV-1 IIIb [2]; Human immunodeficiency virus 1, IIIB, MT2, Table S9 footnote b, read-out: EC50 previously determined (start of resistance selection at twice the EC50)
  EC50: 1.6 nM
HIV-1 IIIb [2]; Human immunodeficiency virus 1, MT2, 120 h, MT-2 cells, HIV-1 IIIb, 5 days, read-out: EC50
  EC50: 1.5 ± 0.2 nM
HIV-1 BaL [3]
  EC50: 3.1 ± 2.5 nM
[4]
  EC50: 1.6 ± 0.5 nM
HIV-1 IIIb [5]
  EC50: 1.7 ± 0.2 nM
HIV-2 CDC 310319
  EC50: 2.5 ± 0.5 nM
[6]; 480 h, selected virus EVG P2 (day 20, 7.2 nM)
  EC50: 5.4 nM
[6]; HIV-1-IIIb (unselected)
  EC50: 2.5 nM
[6]; selected virus BIC P3 (day 47, 6 nM)
  EC50: 3.6 nM
[6]; selected virus BIC P5 (day 71, 12 nM)
  EC50: 6.4 nM
[6]; selected virus BIC P6 (day 86, 24 nM)
  EC50: 8.3 nM
[6]; selected virus BIC P8 (day 156, 96 nM)
  EC50: 12 nM
[6]; selected virus BIC P9 (day 181, 192 nM)
  EC50: 19.1 nM
[6]; selected virus BIC P10 (day 234, 384 nM)
  EC50: 14.7 nM
[6]; selected virus DTG P3Lo (day 59, 6.4 nM)
  EC50: 3.2 nM
[6]; selected virus DTG P4 (day 87, 9.6 nM)
  EC50: 7.8 nM
[6]; selected virus DTG P5 (day 97, 14.4 nM)
  EC50: 10.3 nM
[6]; selected virus DTG P7 (day 139, 32.4 nM)
  EC50: 12.4 nM
[6]; selected virus DTG P9 (day 174, 72.9 nM)
  EC50: 15.6 nM
[6]; selected virus DTG P10 (day 202, 109.4 nM)
  EC50: 19.7 nM
[6]; selected virus EVG P4 (day 41, 28.8 nM)
  EC50: 7.1 nM
[6]; selected virus EVG P6 (day 56, 115 nM)
  EC50: 7.1 nM
[6]; selected virus EVG P7 (day 67, 230 nM)
  EC50: 8.1 nM
[6]; selected virus EVG P9 (day 94, 922 nM)
  EC50: 6.6 nM
[6]; selected virus EVG P10 (day 119, 1843 nM)
  EC50: 3.5 nM
[7]; Human immunodeficiency virus 1, HXB2, IN mutant E92Q
  EC50: 1.8 ± 0.5 nM
[7]; Human immunodeficiency virus 1, HXB2, IN mutant E92Q/N155H
  EC50: 2.8 ± 0.6 nM
[7]; Human immunodeficiency virus 1, HXB2, IN mutant E138K/Q148K
  EC50: 13.7 ± 2.1 nM
[7]; Human immunodeficiency virus 1, HXB2, IN mutant G140S/Q148R
  EC50: 6.5 ± 1.2 nM
[7]; Human immunodeficiency virus 1, HXB2, IN mutant M50I (BIC/DTG selection)
  EC50: 2 ± 0.2 nM
[7]; Human immunodeficiency virus 1, HXB2, IN mutant M50I/R263K (BIC selection)
  EC50: 3.6 ± 0.5 nM
[7]; Human immunodeficiency virus 1, HXB2, IN mutant M50I/S119R/R263K (DTG selection)
  EC50: 6.2 ± 2.4 nM
[7]; Human immunodeficiency virus 1, HXB2, IN mutant N155H
  EC50: 2.4 ± 0.6 nM
[7]; Human immunodeficiency virus 1, HXB2, IN mutant N155H/Q148R
  EC50: 4.7 ± 1.5 nM
[7]; Human immunodeficiency virus 1, HXB2, IN mutant Q148R
  EC50: 1 ± 0.3 nM
[7]; Human immunodeficiency virus 1, HXB2, IN mutant R263K (BIC/DTG selection), Table 7
  EC50: 3.6 ± 0.4 nM
[7]; Human immunodeficiency virus 1, HXB2, IN mutant R263K, Table 6
  EC50: 2.5 ± 0.4 nM
[7]; Human immunodeficiency virus 1, HXB2, IN mutant S119R (DTG selection)
  EC50: 2.1 ± 0.7 nM
[7]; Human immunodeficiency virus 1, HXB2, IN mutant S119R/R263K (DTG selection)
  EC50: 3.6 ± 0.8 nM
[7]; Human immunodeficiency virus 1, HXB2, IN mutant S153Y (DTG selection)
  EC50: 4 ± 1.1 nM
[7]; Human immunodeficiency virus 1, HXB2, IN mutant S153Y/R263K (DTG selection)
  EC50: 6.4 ± 0.8 nM
[7]; Human immunodeficiency virus 1, HXB2, IN mutant Y143R
  EC50: 1.9 ± 0.5 nM
[7]; Human immunodeficiency virus 1, HXB2, WT (HXB2), Table 6, read-out: EC50
  EC50: 1.4 ± 0.3 nM
[7]; {}
  levels of resistance of double IN mutants: 2.1-10 fold
